# From PMC11440508, “Dually Labeled Neurotensin NTS1R Ligands for Probing Radiochemical and Fluorescence-Based Binding Assays” (Journal of Medicinal Chemistry, 2024)
# Biological target: NTS1R (Homo sapiens, UniProt P30989)
# Experiment: Fluorescence anisotropy (FA) association and dissociation kinetics at hNTS1R-displaying BBVs
# Format: binding
# Set-up: NlucC (C-terminal fragment of nanoluciferase, 11 amino acids) (C); made in house; host or cells: Sf9 insect cells, baculovirus (pIMACE-CMVintP10-hNTS1R-Nluc, DH10MultiBac); budded baculovirus particles
# Conditions: NTS1R-BBV, 27 °C; for kon: from model fit, read-out: kon [min^–1 nM^–1] (converted); for koff: read-out: koff [min^–1] (converted)
# Description: FA-based NTS1R binding studies with 13 and 18 were performed at hNTS1R displaying budded baculovirus particles (termed BBVs below), which were obtained from Sf9 insect cells following the procedure reported for the preparation of neuropeptide Y Y1R displaying BBVs.[61] The obtained viruses were collected by centrifugation at 1600g for 10 min, and the virus titer was determined with an image-based cell-size estimation assay as described elsewhere.[62] The viruses were amplified using a multiplicity of infection (MOI) between 0.01 and 0.1 until a high-titer baculovirus stock (virus concentration of at least 1.0 × 10^8 infectious viral particles/mL) was acquired. To produce BBV preparations with a high receptor density, Sf9 cells with a density of 1.9 × 10^6 cells/mL were infected with an MOI of 3 and the BBVs were collected by centrifugation 63 h after the infection, when the cell viability was <30%. The BBVs were concentrated 40-fold by centrifugation at 48,000g at 4 °C for 40 min, washed with ice-cold DPBS (without supplements), resuspended, and homogenized using a 0.3 mm diameter needle (Sterican, B. Braun, Melsungen, Germany). Aliquots of the BBV preparations were stored at −90 °C until use.
# FA measurements were performed with a Synergy NEO multimode plate reader (BioTek, Winooski, VT) and black, half area, flat bottom polystyrene nonbinding surface (NBS) 96-well plates (product no. 3993; Corning, Corning, NY). Polarizing excitation (530 ± 15 nm) and dual emission (590 ± 17.5 nm) filters with a dichroic mirror were used, allowing the simultaneous detection of parallelly and perpendicularly polarized fluorescence emission after polarizing beam splitter. All measurements were performed at 27 °C. For all experiments, DPBS2 was used as binding buffer. […]
# 25 μL of a 4-fold concentrated (compared to the final concentration) solution of 13 or 18 (final concentrations were 0.3 and 1 nM for both ligands) and 25 μL of DPBS2 were premixed in the 96-well plate followed by the addition of 50 μL of BBV suspension (used in six different concentrations; each was combined with the two ligand concentrations) to start the association. […] This enabled shorter time intervals between the read cycles (the measuring time for one cycle, comprising 4 wells, was 6 s; 100 read cycles were carried out). […] Immediately after the addition of SR142948, FA signals were measured for 10 min (within this time period, the dissociation was complete and a plateau was reached, respectively). Equilibrium binding was analyzed using the FA signals at 10 min. Fluorescence intensities were processed as previously reported[61] using the in-house developed software Aparecium 2.0.20 (http://www.gpcr.ut.ee/software.html).[63] […]
# NTS1R, sequence (P30989 whole entry): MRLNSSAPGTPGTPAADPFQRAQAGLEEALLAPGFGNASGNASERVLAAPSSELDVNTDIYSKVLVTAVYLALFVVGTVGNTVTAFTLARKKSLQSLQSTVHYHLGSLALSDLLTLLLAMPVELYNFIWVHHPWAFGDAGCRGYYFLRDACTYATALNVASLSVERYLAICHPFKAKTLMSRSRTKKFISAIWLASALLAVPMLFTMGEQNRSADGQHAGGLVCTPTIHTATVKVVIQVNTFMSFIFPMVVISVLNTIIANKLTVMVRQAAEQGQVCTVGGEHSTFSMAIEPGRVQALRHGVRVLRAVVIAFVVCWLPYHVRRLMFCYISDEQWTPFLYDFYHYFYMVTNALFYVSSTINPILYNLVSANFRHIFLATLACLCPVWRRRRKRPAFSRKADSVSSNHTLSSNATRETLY
compound,measurement,value
"CCC(=O)NCCCCNC(=O)N=C(N)NCCC[C@H](NC(=O)[C@@H]1CCCN1C(=O)[C@@H](NC(=O)CCc1cn(CCCNC(=O)c2ccc(-c3c4ccc(=[N+](C)C)cc-4oc4cc(N(C)C)ccc34)c(C(=O)[O-])c2)nn1)C1CCNCC1)C(=O)N[C@@H](CCCNC(=N)N)C(=O)N1CCC[C@H]1C(=O)N[C@@H](Cc1ccc(O)cc1)C(=O)N[C@H](C(=O)N[C@@H](CC(C)C)C(=O)O)[C@@H](C)CC [Compound 13, N^α-(3-(1-N-((1-Carboxylato-2-(6-(dimethylamino)-3-(dimethyliminio)-3H-xanthen-9-yl)phen-5-yl)1-oxomethyl)aminoprop-3-yl-1H-1,2,3-triazol-4-yl)propanoyl)-2-(piperidin-4-yl)-Gly-Pro-N^ω-[(4-(N-propanoyl)aminobutyl)aminocarbonyl]Arg-Arg-Pro-Tyr-Ile-Leu Tris(hydrotrifluoroacetate)]",kon,1.67e+07 M⁻¹ s⁻¹
same,koff,0.0102 s⁻¹
"CCC(=O)NCCCCNC(=O)NC(=N)NCCC[C@H](NC(=O)[C@@H]1CCCN1C(=O)[C@@H](NC(=O)CCc1cn(CCCNC(=O)CCC#Cc2ccc3c(c2)C(C)(C)C2=C4C=C5C6=[N+](CCC5OC4CCN23)c2ccc(S(=O)(=O)[O-])cc2C6(C)C)nn1)C1CCNCC1)C(=O)N[C@@H](CCCNC(=N)N)C(=O)N1CCC[C@H]1C(=O)N[C@H](C(=O)N[C@H](C(=O)N[C@@H](CC(C)C)C(=O)O)[C@@H](C)CC)C(C)(C)c1ccc(O)cc1 (stereo partly drawn) [Compound 18, N^α-(3-(N-(1-(8-Sulfonato-5,5,27,27-tetramethyl-16-oxa-20-aza-12-azoniaheptacyclo[15.11.0.03,15.04,12.06,11.020,28.021,26]octacosa-1(28),2,4(12),6(11),7,9,21(26),22,24-nonaen-24-yl)-5-oxopentyn-5-yl)-1-aminoprop-3-yl-1H-1,2,3-triazol-4-yl)propanoyl)-2-(piperidin-4-yl)-Gly-Pro-N^ω-[(4-(N-propanoyl)aminobutyl)aminocarbonyl]Arg-Arg-Pro-β,β-dimethyl-L-Tyr-Ile-Leu Tris(hydrotrifluoroacetate)]",kon,2.33e+07 M⁻¹ s⁻¹
same,koff,0.00933 s⁻¹
